{"source": "paper PMC9369154", "about": "“Molecular Basis for Luteolin as a Natural TatD DNase Inhibitor in Trueperella pyogenes” (International Journal of Molecular Sciences, 2022)", "key": {"TatD825": {"biological_target": "T1, TatD825 (Trueperella pyogenes, UniProt A0ABV3NC31)", "T1 construct": "gene V3M73_06995; His-TatD 825 recombinant protein expressed in E. coli BL21 (DE3)", "assay": "SPR (Biacore T200, NTA chip, […] binding model); DNase gel assay with Mg2+ also shows inhibition"}, "TatD960": {"biological_target": "T2, TatD960 (Trueperella pyogenes, UniProt A0ABV3N8R6)", "T2 construct": "gene V3M73_00540; His-TatD 960 recombinant protein expressed in E. coli BL21 (DE3)", "assay": "SPR (Biacore T200, NTA chip, […] binding model); DNase gel assay with Mg2+ also shows inhibition"}}, "data": [{"compound": "O=c1cc(-c2ccc(O)c(O)c2)oc2cc(O)cc(O)c12", "note": "[luteolin, 3′,4′,5,7-tetrahydroxyflavone]", "values": [{"measurement": "Kd", "setting": "TatD825", "value": 5.65, "unit": "µM"}, {"measurement": "Kd", "setting": "TatD960", "value": 6.27, "unit": "µM"}]}]}
